Entries after “also recorded” stand apart in the source; their conditions may differ. Where two headings read alike, the source gives them in different places.
Assays:
breast cancer MCF-7 = experiment: Cytotoxicity, MTT method, MCF-7; format: cell-based; conditions: Homo sapiens, MCF7, 120 h, read-out: IC50 MCF-7
Protocol: (§1) The cytotoxicity against the murine fibroblasts L929, human cervix carcinoma KB-3-1, human lung carcinoma A549, human prostate cancer PC-3, epidermoid carcinoma A431, ovarian carcinoma SKOV-3, and breast cancer MCF-7 cell lines was determined by using the MTT (2-(4,5-dimethylthiazol-2-yl)-2,5-diphenyltetrazolium bromide) method in 96-well microplates as previously described. Briefly, the cell lines were cultured in DMEM (Gibco), 60 µL aliquots of serial dilutions from an initial stock of 1 mg/mL in MeOH of the test compounds were added to 120 µL aliquots of a cell suspension (5 × 10^4 cells/mL) in 96-well microplates. After 5 days incubation, an MTT assay was performed, and the absorbance measured at 590 nm using an ELISA plate reader (Victor). The concentration at which the growth of cells was inhibited to 50% of the control (IC50) was obtained from the dose–response curves. Epothilone B was used as the positive control.

murine fibroblasts L929 = experiment: Cytotoxicity, MTT method, L929; format: cell-based; conditions: Mus musculus, L929, 120 h, read-out: IC50 L929
Protocol: as §1

[1] = tested on: human prostate cancer PC-3; experiment: Cytotoxicity, MTT method, PC-3; format: cell-based; conditions: 120 h, read-out: IC50 PC-3
Protocol: as §1

ovarian carcinoma SKOV-3 = experiment: Cytotoxicity, MTT method, SKOV-3; format: cell-based; conditions: Homo sapiens, SK-OV-3, 120 h, 5 days incubation, na: not active
Protocol: as §1

[2] = tested on: L929, KB3-1, A549, PC-3, A431, SKOV-3 and MCF-7 cell lines; experiment: Cytotoxicity, MTT method, statements over the cell line panel; format: cell-based
Protocol: as §1

[3] = tested on: human lung carcinoma A549; experiment: Cytotoxicity, MTT method, A549; format: cell-based; conditions: A549, 120 h, 5 days incubation, na: not active
Protocol: as §1

[4] = tested on: human cervix carcinoma KB-3-1; experiment: Cytotoxicity, MTT method, KB-3-1; format: cell-based; conditions: KB 3-1, 120 h, 5 days incubation, na: not active, read-out: IC50 KB3.1
Protocol: as §1

[5] = tested on: epidermoid carcinoma A431; experiment: Cytotoxicity, MTT method, A431; format: cell-based; conditions: Homo sapiens, A-431, 120 h, 5 days incubation, na: not active
Protocol: as §1

Caenorhabditis elegans = experiment: Nematicidal activity, microtiter plate assay; format: cell-based; conditions: for LD50 / LD90 / nematicidal activity (in words): C. elegans; for LD50 / LD90: tested at 100, 50, 25 and 12.5 μg/mL, no: not obtained; for mortality: at concentrations of 50 and 100 μg/mL
Protocol: Nematicidal activity was performed using Caenorhabditis elegans in a microtiter plate assay as described by Rupcic et al. (2018). The assay was performed in four concentrations (100, 50, 25 and 12.5 μg/mL). Ivermectin was used as a positive control at the same concentration ranges as the tested compounds and MeOH was used as a negative control. Percentages of mortality were calculated, then the results were expressed as a LD90 and LD50.

Hs683 = tested on: Hs683; design: method as in PMID 36006179; conditions: human cancer cell line; cited from earlier work
SKMEL-28 = tested on: SKMEL-28; design: method as in PMID 36006179; conditions: human cancer cell line; cited from earlier work
A549 = tested on: A549; design: method as in PMID 36006179; conditions: human cancer cell line; cited from earlier work
[6] = design: method as in PMID 28991218; conditions: cited from earlier work
[7] = design: method as in PMID 28991218; conditions: cited from earlier work; remark: listed apart in the source
[8] = MTT, 5 days incubation, na: not active
[9] = all tested cell lines, read-out: IC50 values, range against all the tested cell lines
[10] = read-out: IC50 values, range against the L929 and KB3-1 cell lines

Compound `C/C(=C\c1csc(C)n1)[C@@H]1C[C@@H]2O[C@]2(C)CCC[C@H](C)[C@H](O)[C@@H](C)C(=O)C(C)(C)[C@@H](O)CC(=O)O1` [epothilone B, Epothilone B, reference compound] has an IC50 (breast cancer MCF-7) of 7.5e-05 µM, an IC50 (murine fibroblasts L929) of 0.0022 µM and an IC50 [1] of 9.1e-05 µM.

Compound `C=C(C)C(=O)O[C@H]1[C@H](/C=C/C)OC2=C(C(=O)O[C@]2(C)OC(=O)C2(C)CCC(C)=C(Cl)O2)[C@@H]1OC(=O)C(=C)C` (stereo partly drawn) [Compound 2, massarilactone D 3,4-di-O-methacryloyl-7-O-(6-chloro-3,4-dihydro-2,5-dimethyl-2H-pyran-2-carbonyl)] has an IC50 (breast cancer MCF-7; [8]) of 7.09 µM, an IC50 (ovarian carcinoma SKOV-3) of 11.8 µM and an IC50 (murine fibroblasts L929; [8]) of 5.09 µM. The “cytotoxic activity (in words)” value ([2]; all tested cell lines) was “significant cytotoxicity”, the IC50 [2, 9] was 3.51 to 32.7 µM and the IC50 [3] was 32.7 µM. For the same compound, the IC50 [4] was 13.1 µM, the IC50 [1, 8] was 11.8 µM and the IC50 [5] was 4 µM.

With `C/C=C/[C@@H]1OC2=C(C(=O)O[C@]2(C)O)[C@H](O)[C@H]1OC(=O)/C(C)=C/C` [Compound 6, massarilactone D 7-O-trans-2-methyl-2-butenoyl] the LD50 (Caenorhabditis elegans) was “not obtained and no”, the LD90 (Caenorhabditis elegans) was “no” and the mortality (Caenorhabditis elegans) was “some mortality”.

For `C=C1OC(=O)C2=C1OC(/C=C/C)C(O)C2O` (stereo not drawn) [massarilactone H], the IC50 (Hs683) is given as 31.5 µM, the IC50 (SKMEL-28) is given as 35.2 µM and the IC50 (A549) is given as 32.9 µM.

In the case of `C/C=C/[C@@H]1OC2=C(C(=O)O[C@]2(C)O)[C@H](O)[C@H]1O` [Compound 1, Massarilactone D], the LD50 (Caenorhabditis elegans) is reported as “not obtained and no”, the LD90 (Caenorhabditis elegans) is reported as “no” and the mortality (Caenorhabditis elegans) is reported as “some mortality”. For the same compound, the “cytotoxic activity (in words)” value ([2]; all tested cell lines) was “not active”, the “antimicrobial activity (in words)” value [6] was “did not exhibit significant antimicrobial” and the “cytotoxic activity (in words)” value [7] was “did not exhibit significant antimicrobial or cytotoxic activities”.

With `C/C=C/[C@@H]1OC2=C(C(=O)O[C@]2(C)OC(=O)/C=C/c2ccccc2)[C@H](OC(=O)/C=C/c2ccccc2)[C@H]1OC(=O)/C=C/c1ccccc1` [Compound 4, massarilactone D 3,4,7-tri-O-trans-cinnamoyl] the “nematicidal activity (in words)” value (Caenorhabditis elegans) was “potent activity against nematodes; also recorded: good nematicidal activity”, the LD50 (Caenorhabditis elegans) was 12.5 µg/mL and the LD90 (Caenorhabditis elegans) was 100 µg/mL.

In the case of `C/C=C/[C@@H]1OC2=C(C(=O)O[C@]2(C)OC(=O)c2ccc(Br)cc2)[C@H](OC(=O)c2ccc(Br)cc2)[C@H]1OC(=O)c1ccc(Br)cc1` [Compound 5, massarilactone D 3,4,7-tri-O-bromobenzoyl], the LD50 (Caenorhabditis elegans) is reported as 100 µg/mL and the LD90 (Caenorhabditis elegans) is reported as “not obtained and no”.

For `C/C=C/C(=O)O[C@H]1C2=C(O[C@@H](/C=C/C)[C@@H]1O)[C@@](C)(OC(=O)/C=C/C)OC2=O` [Compound 8, massarilactone D 4,7-di-O-crotonyl], the LD50 (Caenorhabditis elegans) was “not obtained and no”, the LD90 (Caenorhabditis elegans) was “no” and the mortality (Caenorhabditis elegans) was “some mortality”. It also gave an IC50 (murine fibroblasts L929; [8]) of 50.3 µM, an IC50 [2, 10] of 18.5 to 61.7 µM and an IC50 [4] of 18.5 µM.

With `C=C1OC(=O)C2=C1O[C@@H](/C=C/C)[C@H](OC(=O)/C=C/c1ccccc1)[C@H]2OC(=O)/C=C/c1ccccc1` [Compound 3, massarilactone H 3,4-di-O-trans-cinnamoyl] the “nematicidal activity (in words)” value (Caenorhabditis elegans) was “did not exhibit nematicidal activity”, the IC50 (breast cancer MCF-7; [8]) was 3.51 µM and the IC50 (ovarian carcinoma SKOV-3) was 13.2 µM. The IC50 (murine fibroblasts L929; [8]) was 5.58 µM, the “cytotoxic activity (in words)” value ([2]; all tested cell lines) was “significant cytotoxicity” and the IC50 [2, 9] was 3.51 to 32.7 µM. For the same compound, the IC50 [3] was 19.6 µM, the IC50 [4] was 7.85 µM and the IC50 [1, 8] was 7.64 µM. For the same compound, the IC50 [5] was 4.34 µM.

With `C/C=C/C(=O)O[C@H]1C2=C(O[C@@H](/C=C/C)[C@@H]1O)[C@@](C)(OC)OC2=O` [Compound 7, massarilactone D 4-O-crotonyl-7-O-methyl] the LD50 (Caenorhabditis elegans) was “not obtained and no”, the LD90 (Caenorhabditis elegans) was “no” and the mortality (Caenorhabditis elegans) was “some mortality”. It also gave an IC50 (murine fibroblasts L929; [8]) of 61.7 µM, an IC50 [2, 10] of 18.5 to 61.7 µM and an IC50 [4] of 55.6 µM.

— publication PMC11931645, “Semisynthetic derivatives of massarilactone D with cytotoxic and nematicidal activities” (Beilstein Journal of Organic Chemistry, 2025)
